Each structure is given as a SMILES string.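 Cultured in 96-well plates, cells were exposed to test compound for 48 hours across five concentrations. GI50 marks 50% less growth. At the TGI there is no net growth.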

Holding throughout (test): growth of human tumour cells (NCI), 48 h
The subject of assay [1] is PC-3 prostate.
Assay [2] relates to K-562 leukemia.
Assay [3] concerns U251 CNS.
Assay [4] concerns OVCAR-5 ovarian.
The subject of assay [5] is UACC-257 melanoma.
Assay [6] deals with NCI/ADR-RES ovarian.
Assay [7] deals with SW-620 colon.
Assay [8] has as its system HT29 colon.
For assay [9], the system named is A498 renal.
Assay [10] has as its system HCC-2998 colon.

For `CC(=O)NS(=O)(=O)c1ccc(-n2nc(-c3ccccc3)cc2-c2cc(O)ccc2O)cc1`, the GI50 was greater than 100 µM in assay [1]; greater than 100 µM in [2]; 61.6 µM in assay [3]; greater than 100 µM in assay [4]; greater than 100 µM in assay [5]; greater than 100 µM in [6]. Further, the GI50 in assay [7] and in assay [8] was greater than 100 µM throughout. Also, the TGI in assay [1], in assay [2], in assay [3], in assay [4], in assay [5] and in [6] was greater than 100 µM in each case. The TGI in [7] and in [8] was greater than 100 µM in each case.

On to `CSc1nc(SC)c2c(C)cn(Cc3ccccc3)c2n1`, for which the TGI in [9], in assay [10], in [1], in assay [3], in assay [4] and in [6] was greater than 100 µM throughout. In addition, the TGI in [7] and in [8] was greater than 100 µM throughout.

Consider `O=C(O)c1ccc(NCn2nc(-c3ccccc3O)oc2=S)cc1O`, for which the GI50 in assay [10] was greater than 100 µM; in [1], 86.6 µM; in assay [2], greater than 100 µM; in [3] it was 78.1 µM; in assay [4], greater than 100 µM; in [5] it was greater than 100 µM. The GI50 in [6] was greater than 100 µM; in [7], 41.9 µM; in assay [8] it was greater than 100 µM. Moreover, the TGI in assay [10], in assay [1], in assay [2], in [3], in [4] and in assay [5] was greater than 100 µM each time. Also, the TGI in [6], in [7] and in [8] was greater than 100 µM throughout.

Turning to `Oc1c(CCl)cc(Cl)cc1Cc1cc(Cl)cc(Cc2cc(Cl)cc(CCl)c2O)c1O`, the GI50 was 2.8 µM in assay [10]; 2.7 µM in [1]; 1.99 µM in assay [2]; 2.83 µM in [3]; 12.2 µM in [4]; 4.66 µM in assay [5]. The GI50 is 2.2 µM in [6], 3.92 µM in [7] and 5.37 µM in assay [8]. The TGI in [10] was 12.2 µM; in assay [1], 10.1 µM; in [2], 13.4 µM; in [3], 21.1 µM; in assay [4], 38.7 µM; in assay [5] it was 29.9 µM. Moreover, the TGI in [6] turned out to be 7.29 µM; in assay [7] it was 14.2 µM; in [8] it was 17.6 µM.

For the compound `CC1=CC=C2C(C)(C)CC[C@@H]3OC(=O)[C@H]1[C@]23C`, the TGI in [9], in [10], in assay [2], in [3], in assay [4] and in assay [5] was greater than 100 µM in each case. The TGI in assay [7] and in [8] was greater than 100 µM in each case.

With `COC(=O)c1oc([N+](=O)[O-])c(-c2ccccc2)c1-c1ccccc1`, the TGI in [9], in assay [10], in assay [2], in assay [3], in assay [4] and in assay [5] was greater than 100 µM throughout. The TGI in assay [7] and in assay [8] was greater than 100 µM each time.

Consider `O=C1C2=C(c3ccccc31)C(c1ccccc1Cl)NC(=S)N2` (centres undefined), for which the TGI in [9], in [10], in assay [2], in assay [3], in assay [4] and in assay [5] was greater than 100 µM each time. Besides, the TGI in [7] and in assay [8] was greater than 100 µM in each case.

With `CN1C(=O)CNS1(=O)=O`, the TGI in assay [9], in assay [10], in assay [2], in assay [3], in assay [4] and in assay [5] was greater than 100 µM each time. The TGI in assay [7] and in assay [8] was greater than 100 µM throughout.

For `Cc1ccc(NC(=O)CC2SC(=Nc3cccc(Cl)c3C)NC2=O)cc1` (centres undefined), the TGI in assay [9], in assay [10], in [2], in [3], in [4] and in assay [5] was greater than 100 µM each time. Also, the TGI in assay [7] and in [8] was greater than 100 µM each time.

Turning to `O=C(O)COc1ccc2c3c1C(=O)CCC3CO2` (centres undefined), the TGI in assay [9], in assay [10], in [2], in assay [3], in assay [4] and in assay [5] was greater than 100 µM in each case. The TGI in [7] and in assay [8] was greater than 100 µM each time.

As for `Cc1cc(S(=O)(=O)Nc2n[nH]c(-c3ccc(Cl)cc3)c2C#N)c(S)cc1Cl`, the GI50 in assay [10] is 95.5 µM; in assay [1], greater than 100 µM; in assay [2], greater than 100 µM; in [3], greater than 100 µM; in assay [4], greater than 100 µM; in [5], greater than 100 µM. In addition, the GI50 in [6], in assay [7] and in [8] was greater than 100 µM each time. Also, the TGI in [10], in [1], in assay [2], in [3], in assay [4] and in [5] was greater than 100 µM throughout. In addition, the TGI in [6], in assay [7] and in [8] was greater than 100 µM throughout.

For `N#CCC(=O)N/N=C(/C(=O)Nc1ccccc1)C1C(=O)N(c2ccccc2)N=C1N` (centres undefined), the TGI in assay [9], in assay [10], in [2], in [3], in [4] and in [5] was greater than 100 µM in each case. For the same compound, the TGI in assay [7] and in [8] was greater than 100 µM each time.

For the origin of these results see PubChem BioAssay (NCI).
